Test results as given in ChEMBL document CHEMBL5375952, “Discovery of Novel 8-Hydroxyquinoline Derivatives with Potent In Vitro and In Vivo Antifungal Activity” (J Med Chem, 2023).
In brackets after ≈: the same amount, converted by molar mass.

What was measured:
Format in all cases: functional
Candida albicans [1] = assay: Antifungal activity against Candida albicans 21 assessed as fungal growth inhibition incubated for 48 hrs by broth microdilution method
Candida albicans [2] = assay: Antifungal activity against Candida albicans 22 assessed as fungal growth inhibition incubated for 48 hrs by broth microdilution method
Candida albicans [3] = assay: Antifungal activity against Candida albicans SC5314 assessed as fungal growth inhibition incubated for 48 hrs by broth microdilution method

MIC (Candida albicans [1]) [mg/L]	MIC (Candida albicans [2]) [mg/L]	MIC (Candida albicans [3]) [mg/L]	Compound
0.5 (≈ 1.29 µM)	0.5 (≈ 1.29 µM)	1 (≈ 2.59 µM)	CC(C)C(=O)NC(c1ccc(OC(F)F)cc1)c1ccc2cccnc2c1O (centres undefined)
1 (≈ 2.24 µM)	1 (≈ 2.24 µM)	2 (≈ 4.47 µM)	O=C(Cc1ccccc1)NC(c1ccc(Br)cc1)c1ccc2cccnc2c1O (centres undefined)
0.25 (≈ 0.688 µM)	0.5 (≈ 1.38 µM)	0.25 (≈ 0.688 µM)	CCCC(=O)NC(c1ccc(N(C)C)cc1)c1ccc2cccnc2c1O (centres undefined)
1 (≈ 2.59 µM)	1 (≈ 2.59 µM)	0.5 (≈ 1.29 µM)	O=C(Cc1ccccc1)NC(c1ccc(F)cc1)c1ccc2cccnc2c1O (centres undefined)
0.5 (≈ 1.38 µM)	0.5 (≈ 1.38 µM)	0.125 (≈ 0.346 µM)	CC(=O)NC(c1ccc(Cl)cc1Cl)c1ccc2cccnc2c1O (centres undefined)
1 (≈ 2.57 µM)	2 (≈ 5.15 µM)	1 (≈ 2.57 µM)	CC(C)C(=O)NC(c1ccc(C(F)(F)F)cc1)c1ccc2cccnc2c1O (centres undefined)
0.5 (≈ 1.25 µM)	1 (≈ 2.5 µM)	2 (≈ 5.01 µM)	CC(C)C(=O)NC(c1ccc(Br)cc1)c1ccc2cccnc2c1O (centres undefined)
0.25 (≈ 0.551 µM)	1 (≈ 2.2 µM)	2 (≈ 4.41 µM)	CCN(CC)c1ccc(C(NC(=O)CCc2ccccc2)c2ccc3cccnc3c2O)cc1 (centres undefined)
0.5 (≈ 1.25 µM)	1 (≈ 2.51 µM)	2 (≈ 5.02 µM)	COc1ccc(C(NC(=O)Cc2ccccc2)c2ccc3cccnc3c2O)cc1 (centres undefined)
0.5 (≈ 1.17 µM)	0.5 (≈ 1.17 µM)	0.5 (≈ 1.17 µM)	COc1ccc(C(NC(=O)Cc2ccccc2)c2ccc3cccnc3c2O)cc1OC (centres undefined)

Continued, compound first:

Compound	MIC (Candida albicans [1]) [mg/L]	MIC (Candida albicans [2]) [mg/L]	MIC (Candida albicans [3]) [mg/L]
CCCC(=O)NC(c1cccc([N+](=O)[O-])c1)c1ccc2cccnc2c1O (centres undefined)	1 (≈ 2.74 µM)	1 (≈ 2.74 µM)	1 (≈ 2.74 µM)
CCC(=O)NC(c1ccccc1OC)c1ccc2cccnc2c1O (centres undefined)	8 (≈ 23.8 µM)	16 (≈ 47.6 µM)	4 (≈ 11.9 µM)
Cc1ccc(C(NC(=O)C(C)C)c2ccc3cccnc3c2O)cc1 (centres undefined)	1 (≈ 2.99 µM)	1 (≈ 2.99 µM)	2 (≈ 5.98 µM)
Cc1ccc(C(NC(=O)Cc2ccccc2)c2ccc3cccnc3c2O)cc1 (centres undefined)	0.25 (≈ 0.654 µM)	1 (≈ 2.61 µM)	1 (≈ 2.61 µM)
CC(C)C(=O)NC(c1cccc([N+](=O)[O-])c1)c1ccc2cccnc2c1O (centres undefined)	0.25 (≈ 0.684 µM)	0.5 (≈ 1.37 µM)	0.25 (≈ 0.684 µM)
CS(=O)(=O)c1ccc(C(NC(=O)Cc2ccccc2)c2ccc3cccnc3c2O)cc1 (centres undefined)	1 (≈ 2.24 µM)	2 (≈ 4.48 µM)	2 (≈ 4.48 µM)
O=C(Cc1ccccc1)NC(c1ccc(Cl)c(Cl)c1)c1ccc2cccnc2c1O (centres undefined)	1 (≈ 2.29 µM)	1 (≈ 2.29 µM)	0.5 (≈ 1.14 µM)
CC(=O)NC(c1ccc2ccccc2c1)c1ccc2cccnc2c1O (centres undefined)	0.5 (≈ 1.46 µM)	0.125 (≈ 0.365 µM)	0.25 (≈ 0.73 µM)
CSc1ccc(C(NC(=O)Cc2ccccc2)c2ccc3cccnc3c2O)cc1 (centres undefined)	2 (≈ 4.82 µM)	4 (≈ 9.65 µM)	1 (≈ 2.41 µM)
CC(C)C(=O)NC(c1ccc(F)cc1)c1ccc2cccnc2c1O (centres undefined)	1 (≈ 2.96 µM)	1 (≈ 2.96 µM)	1 (≈ 2.96 µM)
CC(C)C(=O)NC(c1ccc(S(C)(=O)=O)cc1)c1ccc2cccnc2c1O (centres undefined)	2 (≈ 5.02 µM)	1 (≈ 2.51 µM)	2 (≈ 5.02 µM)
CN1CCN(C(c2ccncc2)c2ccc3cccnc3c2O)CC1 (centres undefined)	4 (≈ 12 µM)	4 (≈ 12 µM)	4 (≈ 12 µM)
CSc1ccc(C(NC(=O)C(C)C)c2ccc3cccnc3c2O)cc1 (centres undefined)	1 (≈ 2.73 µM)	2 (≈ 5.46 µM)	2 (≈ 5.46 µM)
